Measurements as given in the supplement of paper PMC10307832.

Tests used:
Assay in all cases: relative viability (nuclei count vs DMSO), 5 days (fraction); higher = more cells survive
[1] = compound: Cc1ccccc1C(C(=O)NC1CCCCC1)N(C(=O)Cn1ccnc1C)c1cccc(F)c1 [IDH-C35] + CC(=O)c1c(C)c2cnc(Nc3ccc(N4CCNCC4)cn3)nc2n(C2CCCC2)c1=O [Palbociclib] (partner 0.5 µM)
Method in brief: (§1)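 Nuclei were stained with Hoechst during a one-step fixation (final 0.05% Triton X-100, 1% formaldehyde, 1 ug/ml Hoechst) carried out 5 days after dosing, then counted on 4× images. The cells, lung cancer lines in 1536-well plates, had been dosed by pin tool the day after seeding with one drug alone or a fixed anchor-drug dose plus five library-drug doses (not always all listed) in √10 steps. Relative viability is the nuclei count in treated wells divided by that in vehicle wells, and each value is the median of duplicate plates.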

[2] = compound: CC1=C(C(=NN1)C)CC2=C(C3=C(S2)N(C(=O)N(C3=O)C)CC(C)C)C(=O)N4C[C@@H](CO4)O + C[C@@H](Oc1cc(-c2cnn(C3CCNCC3)c2)cnc1N)c1c(Cl)ccc(F)c1Cl [Crizotinib] (partner 1 µM)
Method in brief: as §1

[3] = compound: CC1=C(C(=NN1)C)CC2=C(C3=C(S2)N(C(=O)N(C3=O)C)CC(C)C)C(=O)N4C[C@@H](CO4)O + C[C@]1(O)C[C@@H](c2nc(-c3ccc4ccc(-c5ccccc5)nc4c3)c3c(N)nccn32)C1 [Linsitinib] (partner 1 µM)
Method in brief: as §1

[4] = compound: Cc1ccccc1C(C(=O)NC1CCCCC1)N(C(=O)Cn1ccnc1C)c1cccc(F)c1 [IDH-C35] + Nc1ncn([C@H]2C[C@H](O)[C@@H](CO)O2)c(=O)n1 [Decitabine] (partner 2 µM)
Method in brief: as §1

Cell Line	relative viability ([1]; first compound 0.08 µM)	relative viability ([1]; first compound 0.253 µM)	relative viability ([1]; first compound 0.8 µM)	relative viability ([1]; first compound 2.53 µM)	relative viability ([1]; first compound 8 µM)	relative viability ([2]; first compound 0.0025 µM)	relative viability ([2]; first compound 0.007906 µM)	relative viability ([2]; first compound 0.025 µM)	relative viability ([2]; first compound 0.07906 µM)	relative viability ([2]; first compound 0.25 µM)	relative viability ([3]; first compound 0.0025 µM)	relative viability ([3]; first compound 0.007906 µM)	relative viability ([3]; first compound 0.025 µM)	relative viability ([3]; first compound 0.07906 µM)	relative viability ([3]; first compound 0.25 µM)	relative viability ([4]; first compound 0.08 µM)	relative viability ([4]; first compound 0.253 µM)	relative viability ([4]; first compound 0.8 µM)	relative viability ([4]; first compound 2.53 µM)	relative viability ([4]; first compound 8 µM)
RERF-LC-KJ	1.08	1.03	0.991	1.1	1.09	0.862	0.819	0.823	0.865	0.88	0.973	0.931	0.925	0.899	0.95	0.727	0.69	0.753	0.809	0.681
SK-LU-1	0.47	0.387	0.366	0.391	0.418	0.654	0.6	0.653	0.693	0.643	0.86	0.712	0.711	0.774	0.731	0.636	0.687	0.592	0.65	0.654
SK-MES-1	0.307	0.286	0.301	0.317	0.271	1.13	0.995	1.08	0.944	0.966	1.05	1.03	1.04	1.15	1.14	0.294	0.39	0.379	0.362	0.377
SW 1573	0.43	0.432	0.388	0.462	0.353	0.955	0.866	0.798	0.786	0.812	0.869	0.905	0.869	0.804	0.782	0.491	0.628	0.564	0.544	0.465
